Results published in PubChem BioAssay (NCI).
Where “and” joins values, the source holds several entries; their conditions need not be identical. Equal entries are not always repeated.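 Step 1: Grow cells in 96-well plates. Step 2: Expose to compound for 48 hours at 5 concentrations. Step 3: Interpolate endpoints linearly; if unreached, use highest concentration. GI50 is the concentration that inhibits growth by half. The concentration for full growth arrest is given as TGI.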

Key:
Assay in all cases: inhibition of tumour cell growth, NCI panel, 48 h; in the data active means GI50 below about 0.43 µM; inactive means the rest
MDA-MB-468 breast = test system: MDA-MB-468 breast
COLO 205 colon = test system: COLO 205 colon
SK-MEL-28 melanoma = test system: SK-MEL-28 melanoma
A498 renal = test system: A498 renal
RXF 393 renal = test system: RXF 393 renal
M14 melanoma = test system: M14 melanoma
HCT-116 colon = test system: HCT-116 colon
HL-60(TB) leukemia = test system: HL-60(TB) leukemia
MOLT-4 leukemia = test system: MOLT-4 leukemia
SF-539 CNS = test system: SF-539 CNS
BT-549 breast = test system: BT-549 breast
CCRF-CEM leukemia = test system: CCRF-CEM leukemia
KM12 colon = test system: KM12 colon
K-562 leukemia = test system: K-562 leukemia
OVCAR-4 ovarian = test system: OVCAR-4 ovarian
786-0 renal = test system: 786-0 renal
IGROV1 ovarian = test system: IGROV1 ovarian
SK-OV-3 ovarian = test system: SK-OV-3 ovarian
TK-10 renal = test system: TK-10 renal
ACHN renal = test system: ACHN renal
HCT-15 colon = test system: HCT-15 colon
HCC-2998 colon = test system: HCC-2998 colon
DU-145 prostate = test system: DU-145 prostate
UO-31 renal = test system: UO-31 renal
MDA-MB-435 = test system: MDA-MB-435
CAKI-1 renal = test system: CAKI-1 renal
SN12C renal = test system: SN12C renal
OVCAR-5 ovarian = test system: OVCAR-5 ovarian
SNB-19 CNS = test system: SNB-19 CNS
HOP-62 NSCLC = test system: HOP-62 NSCLC
NCI-H226 lung = test system: NCI-H226 lung
SR leukemia = test system: SR leukemia
SK-MEL-5 melanoma = test system: SK-MEL-5 melanoma
HT29 colon = test system: HT29 colon
RPMI-8226 leukemia = test system: RPMI-8226 leukemia
UACC-257 melanoma = test system: UACC-257 melanoma
NCI-H460 lung = test system: NCI-H460 lung
U251 CNS = test system: U251 CNS
MCF7 breast = test system: MCF7 breast
EKVX NSCLC = test system: EKVX NSCLC
PC-3 prostate = test system: PC-3 prostate
OVCAR-3 ovarian = test system: OVCAR-3 ovarian
SW-620 colon = test system: SW-620 colon
LOX IMVI melanoma = test system: LOX IMVI melanoma
A549 NSCLC = test system: A549 NSCLC
HS 578T breast = test system: HS 578T breast
NCI/ADR-RES ovarian = test system: NCI/ADR-RES ovarian
MALME-3M melanoma = test system: MALME-3M melanoma
SK-MEL-2 melanoma = test system: SK-MEL-2 melanoma
T-47D breast = test system: T-47D breast
SF-295 CNS = test system: SF-295 CNS
NCI-H23 lung = test system: NCI-H23 lung
NCI-H522 lung = test system: NCI-H522 lung
MDA-MB-231 breast = test system: MDA-MB-231 breast
OVCAR-8 ovarian = test system: OVCAR-8 ovarian
SF-268 CNS = test system: SF-268 CNS
UACC-62 melanoma = test system: UACC-62 melanoma

COc1ccc2c(c1)nc(N)c1c3cccnc3cn21
3.45 µM: TGI (MDA-MB-468 breast)
active: GI50 (MDA-MB-468 breast) 294 nM

O=C(NN1C(=O)CSC1c1ccc(Cl)cc1)c1[nH]c2ccc(F)cc2c1-c1ccccc1 (configuration not stated)
inactive: GI50 (MDA-MB-468 breast) 8040 nM
25.1 µM: TGI (MDA-MB-468 breast)

CCCCC[C@H]1C/C=C2/C(=O)C(Cl)=C[C@@H]2C/C=C\CCCC(=O)O[C@@H](CCCCC)C/C=C2/C(=O)C(Cl)=C[C@@H]2C/C=C\CCCC(=O)O1
active: GI50 (MDA-MB-468 breast) 366 nM
0.862 µM: TGI (MDA-MB-468 breast)

Fc1ccc(Nc2nc(NCCNc3ccnc4cc(Cl)ccc34)nc(N3CCOCC3)n2)cc1
inactive: GI50 (MDA-MB-468 breast) 1960 nM
4.83 µM: TGI (MDA-MB-468 breast)

C[C@H](CS(C)(=O)=O)Nc1ncc2cc(Oc3ccc(F)cc3F)c(=O)n(C)c2n1
> 25 µM: TGI (MDA-MB-468 breast)
inactive: GI50 (MDA-MB-468 breast) > 25000 nM

COc1cnc2c(c1)C(=O)c1c-2n(CCCN2CCCC2)c(=O)c2cc(Cl)ccc12
2.04 µM: TGI (MDA-MB-468 breast)
active: GI50 (MDA-MB-468 breast) 63.5 nM

Cc1ccc2c(c1)ncn2-c1ncnc2c1CC(C)c1ccccc1N2C (configuration not stated)
19.2 µM: TGI (MDA-MB-468 breast)
active: GI50 (MDA-MB-468 breast) 49.2 nM

C=C(C)CCC(C)N1CCC(N2CCC(C(=O)NCCc3ccccc3)CC2)CC1 (configuration not stated)
inactive: GI50 (MDA-MB-468 breast) 2200 nM
15.8 µM: TGI (MDA-MB-468 breast)

CC1=C[C@H]2O[C@@H]3C[C@H]4OC(=O)/C=C\C=C\[C@H]([C@@H](C)O)OCC[C@@H](C)[C@H](O)C(=O)OC[C@@]2(CC1)[C@]4(C)[C@]31CO1
active: GI50 (MDA-MB-468 breast) 3.71 nM and 1.43 nM
0.00228 µM: TGI (MDA-MB-468 breast)

CN1CCN(c2ccc(C(=O)/C=C/c3ccc(Br)cc3)cc2)CC1
inactive: GI50 (COLO 205 colon) 50.1 µM | GI50 (SK-MEL-28 melanoma) 76.2 µM | GI50 (A498 renal) > 100 µM | GI50 (RXF 393 renal) 17.2 µM | GI50 (M14 melanoma) 36.6 µM | GI50 (HCT-116 colon) 3.54 µM | GI50 (HL-60(TB) leukemia) 10.7 µM | GI50 (MOLT-4 leukemia) 31.3 µM | GI50 (SF-539 CNS) 24.4 µM | GI50 (BT-549 breast) 12 µM | GI50 (CCRF-CEM leukemia) 40.9 µM | GI50 (KM12 colon) 16.6 µM | GI50 (K-562 leukemia) 6.96 µM | GI50 (OVCAR-4 ovarian) 70.8 µM | GI50 (786-0 renal) 29.5 µM | GI50 (IGROV1 ovarian) 34.5 µM | GI50 (SK-OV-3 ovarian) 53.9 µM | GI50 (TK-10 renal) > 100 µM | GI50 (ACHN renal) 54.9 µM | GI50 (HCT-15 colon) 5.64 µM | GI50 (HCC-2998 colon) 15.2 µM | GI50 (DU-145 prostate) 86.6 µM | GI50 (UO-31 renal) 16.9 µM | GI50 (MDA-MB-435) 22.4 µM | GI50 (CAKI-1 renal) 32.2 µM | GI50 (SN12C renal) 22.7 µM | GI50 (OVCAR-5 ovarian) 51.9 µM | GI50 (MDA-MB-468 breast) 7850 nM | GI50 (SNB-19 CNS) > 100 µM | GI50 (HOP-62 NSCLC) > 100 µM | GI50 (NCI-H226 lung) 45.5 µM | GI50 (SR leukemia) 8.37 µM | GI50 (SK-MEL-5 melanoma) 22.5 µM | GI50 (HT29 colon) 15.8 µM | GI50 (RPMI-8226 leukemia) 5.38 µM | GI50 (UACC-257 melanoma) > 100 µM | GI50 (NCI-H460 lung) > 100 µM | GI50 (U251 CNS) 20.8 µM | GI50 (MCF7 breast) 5.67 µM | GI50 (EKVX NSCLC) > 100 µM | GI50 (PC-3 prostate) 28.2 µM | GI50 (OVCAR-3 ovarian) 24.4 µM | GI50 (SW-620 colon) 23.2 µM | GI50 (LOX IMVI melanoma) 13.7 µM | GI50 (A549 NSCLC) 28.1 µM | GI50 (HS 578T breast) > 100 µM | GI50 (NCI/ADR-RES ovarian) 76 µM | GI50 (MALME-3M melanoma) > 100 µM | GI50 (SK-MEL-2 melanoma) > 100 µM | GI50 (T-47D breast) 28.7 µM | GI50 (SF-295 CNS) 41.3 µM | GI50 (NCI-H23 lung) > 100 µM | GI50 (NCI-H522 lung) > 100 µM | GI50 (MDA-MB-231 breast) > 100 µM | GI50 (OVCAR-8 ovarian) 54.9 µM | GI50 (SF-268 CNS) > 100 µM | GI50 (UACC-62 melanoma) 17.1 µM
95.5 µM: TGI (CCRF-CEM leukemia)
33.6 µM: TGI (HL-60(TB) leukemia)
78.5 µM: TGI (K-562 leukemia)
50.6 µM: TGI (LOX IMVI melanoma)
32.2 µM: TGI (RPMI-8226 leukemia)
96 µM: TGI (OVCAR-3 ovarian)
46.7 µM: TGI (BT-549 breast)
48.7 µM: TGI (SR leukemia)
> 100 µM: TGI (COLO 205 colon) | TGI (SK-MEL-28 melanoma) | TGI (A498 renal) | TGI (RXF 393 renal) | TGI (M14 melanoma) | TGI (MOLT-4 leukemia) | TGI (SF-539 CNS) | TGI (KM12 colon) | TGI (OVCAR-4 ovarian) | TGI (786-0 renal) | TGI (IGROV1 ovarian) | TGI (SK-OV-3 ovarian) | TGI (TK-10 renal) | TGI (ACHN renal) | TGI (HCT-15 colon) | TGI (DU-145 prostate) | TGI (UO-31 renal) | TGI (CAKI-1 renal) | TGI (SN12C renal) | TGI (OVCAR-5 ovarian) | TGI (SNB-19 CNS) | TGI (HOP-62 NSCLC) | TGI (NCI-H226 lung) | TGI (SK-MEL-5 melanoma) | TGI (HT29 colon) | TGI (UACC-257 melanoma) | TGI (NCI-H460 lung) | TGI (U251 CNS) | TGI (MCF7 breast) | TGI (EKVX NSCLC) | TGI (PC-3 prostate) | TGI (SW-620 colon) | TGI (A549 NSCLC) | TGI (HS 578T breast) | TGI (NCI/ADR-RES ovarian) | TGI (MALME-3M melanoma) | TGI (SK-MEL-2 melanoma) | TGI (T-47D breast) | TGI (SF-295 CNS) | TGI (NCI-H23 lung) | TGI (NCI-H522 lung) | TGI (MDA-MB-231 breast) | TGI (OVCAR-8 ovarian) | TGI (SF-268 CNS)
50.4 µM: TGI (HCC-2998 colon)
41 µM: TGI (MDA-MB-468 breast)
38.2 µM: TGI (UACC-62 melanoma)
18.5 µM: TGI (HCT-116 colon)
98 µM: TGI (MDA-MB-435)
